Here are results for 65 compounds from patent US8877741B2, “Pyrrolidine derivatives, pharmaceutical compositions and uses thereof” (Boehringer Ingelheim International GmbH, priority 2013, dated 2014).

Structures are written as SMILES. pIC50: −log10 of the molar value.

The target in this assay is human ACC2 (Homo sapiens (Human), UniProt O00763). The assay can be described thus: ACC2 assay, spectrophotometric 384 well assay (NADH-linked kinetic method). Type of assay: biochemical. The following applies: human ACC2 construct lacking the 128 N-terminal amino acids; coupled lactate dehydrogenase/pyruvate kinase reaction, 340 nm, 25° C. In short, it runs like this: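 N-terminally truncated human ACC2 (lacking 128 residues), expressed in insect cells, was coupled to pyruvate kinase/lactate dehydrogenase, with NADH and acetyl-CoA at 2000 μM and ATP at 500 μM final. The OD340 decrease was followed over 15 min at 25 °C. Slopes were normalised to vehicle and no-acetyl-CoA controls, and IC50 came from four-parameter regression.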
human ACC2, sequence (O00763 129-2458): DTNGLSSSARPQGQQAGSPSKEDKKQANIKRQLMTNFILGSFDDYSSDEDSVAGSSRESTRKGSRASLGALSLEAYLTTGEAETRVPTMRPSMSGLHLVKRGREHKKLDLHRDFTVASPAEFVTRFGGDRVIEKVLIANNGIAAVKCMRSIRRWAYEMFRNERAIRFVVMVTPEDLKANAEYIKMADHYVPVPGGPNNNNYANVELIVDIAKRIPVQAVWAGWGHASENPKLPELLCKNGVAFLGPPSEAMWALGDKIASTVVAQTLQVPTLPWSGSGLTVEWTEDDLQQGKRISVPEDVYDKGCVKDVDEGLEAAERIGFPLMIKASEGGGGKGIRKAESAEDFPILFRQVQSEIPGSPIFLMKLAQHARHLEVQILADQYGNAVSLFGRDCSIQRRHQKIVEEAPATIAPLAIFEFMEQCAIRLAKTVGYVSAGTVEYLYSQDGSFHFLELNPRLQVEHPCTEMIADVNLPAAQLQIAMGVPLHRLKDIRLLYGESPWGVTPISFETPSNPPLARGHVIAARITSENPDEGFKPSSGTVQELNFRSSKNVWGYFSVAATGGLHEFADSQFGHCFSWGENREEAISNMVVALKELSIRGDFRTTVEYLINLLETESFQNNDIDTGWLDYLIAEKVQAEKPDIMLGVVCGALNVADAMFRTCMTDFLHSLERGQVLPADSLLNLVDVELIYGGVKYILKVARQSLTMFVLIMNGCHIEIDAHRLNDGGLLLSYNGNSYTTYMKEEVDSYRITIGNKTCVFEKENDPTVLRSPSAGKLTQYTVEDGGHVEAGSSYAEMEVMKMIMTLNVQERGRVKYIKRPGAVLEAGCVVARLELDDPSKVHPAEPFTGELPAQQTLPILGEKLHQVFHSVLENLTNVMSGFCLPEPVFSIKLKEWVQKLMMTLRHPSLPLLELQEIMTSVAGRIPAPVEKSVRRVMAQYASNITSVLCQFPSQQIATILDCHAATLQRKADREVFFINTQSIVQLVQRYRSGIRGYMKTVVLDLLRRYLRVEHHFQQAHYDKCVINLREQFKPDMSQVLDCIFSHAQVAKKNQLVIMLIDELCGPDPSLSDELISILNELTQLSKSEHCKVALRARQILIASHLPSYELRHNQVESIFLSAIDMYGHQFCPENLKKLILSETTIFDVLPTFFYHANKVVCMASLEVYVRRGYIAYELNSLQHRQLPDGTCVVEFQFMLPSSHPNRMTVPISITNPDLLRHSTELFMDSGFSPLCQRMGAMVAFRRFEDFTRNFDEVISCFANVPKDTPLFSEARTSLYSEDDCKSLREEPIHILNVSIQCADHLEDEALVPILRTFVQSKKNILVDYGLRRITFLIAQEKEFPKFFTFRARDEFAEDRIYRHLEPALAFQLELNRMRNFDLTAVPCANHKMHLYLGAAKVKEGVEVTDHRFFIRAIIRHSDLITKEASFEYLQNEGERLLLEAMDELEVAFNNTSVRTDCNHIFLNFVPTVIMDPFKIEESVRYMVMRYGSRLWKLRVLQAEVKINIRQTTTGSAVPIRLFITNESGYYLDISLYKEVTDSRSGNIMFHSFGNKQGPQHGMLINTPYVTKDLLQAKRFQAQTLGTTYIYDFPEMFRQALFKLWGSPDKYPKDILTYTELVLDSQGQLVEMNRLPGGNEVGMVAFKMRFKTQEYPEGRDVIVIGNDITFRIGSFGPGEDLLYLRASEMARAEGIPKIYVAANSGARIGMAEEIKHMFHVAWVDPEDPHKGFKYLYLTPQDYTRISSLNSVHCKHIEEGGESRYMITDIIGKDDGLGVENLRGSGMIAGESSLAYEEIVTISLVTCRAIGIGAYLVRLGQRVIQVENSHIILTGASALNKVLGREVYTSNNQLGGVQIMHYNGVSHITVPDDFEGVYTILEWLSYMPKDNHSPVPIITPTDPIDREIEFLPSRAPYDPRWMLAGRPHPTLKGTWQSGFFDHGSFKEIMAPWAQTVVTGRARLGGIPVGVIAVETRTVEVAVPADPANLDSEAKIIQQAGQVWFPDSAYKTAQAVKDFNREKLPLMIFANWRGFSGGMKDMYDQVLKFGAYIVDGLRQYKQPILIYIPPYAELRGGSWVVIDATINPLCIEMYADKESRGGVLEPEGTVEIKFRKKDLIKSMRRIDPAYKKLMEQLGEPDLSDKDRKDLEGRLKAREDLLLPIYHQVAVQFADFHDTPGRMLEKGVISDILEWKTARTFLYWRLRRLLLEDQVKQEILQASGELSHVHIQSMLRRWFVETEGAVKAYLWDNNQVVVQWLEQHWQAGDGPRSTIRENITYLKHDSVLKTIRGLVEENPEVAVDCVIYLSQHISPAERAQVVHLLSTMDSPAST

Turning to `C[C@H](NC(=O)CO)c1ccc(OC2CCN(c3cccc(C(F)(F)F)n3)C2)cc1` (some centres unmarked) [Example 6.2], the pIC50 is 6.21.

`CCC(C)Oc1ccc(N2CCC(Oc3ccc([C@H](C)NC(C)=O)cc3)C2)nc1` (some centres unmarked) [Example 1.28] had a negative logarithm of the IC50 (pIC50) of 6.61.

In turn, `CC(=O)N[C@@H](C)c1ccc(O[C@@H]2CCN(c3ccnc(N(C)C(C)C)c3F)C2)cc1` [Example 1.111] gave a pIC50 of 6.95.

With `C[C@H](NC(=O)C1CC1)c1ccc(O[C@@H]2CCN(c3ccnc(O[C@@H]4CCOC4)c3)C2)cc1` [Example 9.43], the pIC50 was 6.74.

As to `CC(=O)N[C@@H](C)c1ccc(O[C@@H]2CCN(c3ccnc(O[C@@H]4CCC[C@H]4O)c3)C2)cc1` [Example 9.47], the pIC50 is 6.13.

Regarding `CC(C)Oc1cc(N2CCC(Oc3ccc([C@H](C)NC(=O)C(F)F)cc3)C2)ccn1` (some centres unmarked) [Example 2.19], the pIC50 is 6.60.

Compound `CC(C#N)C(=O)N[C@@H](C)c1ccc(OC2CCN(c3ccnc(OCC4CC4)c3)C2)cc1` (some centres unmarked) [Example 2.83] showed a pIC50 of 6.68.

As for `CC(=O)N[C@@H](C)c1ccc(OC2CCN(c3ccc(OC(C)C)nc3)C2)cc1` (some centres unmarked) [Example 1.10], the pIC50 was 6.08.

The compound `CC(=O)N[C@@H](C)c1ccc(O[C@@H]2CCN(c3cccc(N4CCOC(C)(C)C4)n3)C2)cc1` [Example 10.38] gave a pIC50 of 6.43.

For `CC(=O)N[C@@H](C)c1ccc(OC2CCN(c3ncc(OCC4CC4)cc3C)C2)cc1` (some centres unmarked) [Example 1.41], the pIC50 was 6.81.

`CC(C)Oc1cc(N2CCC(Oc3ccc([C@H](C)NC(=O)c4ccon4)cc3)C2)ccn1` (some centres unmarked) [Example 2.28] gave a pIC50 of 6.29.

`CC(=O)Nc1cncc(C(=O)N[C@@H](C)c2ccc(OC3CCN(c4ccnc(OC(C)C)c4)C3)cc2)c1` (some centres unmarked) [Example 2.22] showed a pIC50 of 6.00.

In the case of `CCNC(=O)N[C@@H](C)c1ccc(OC2CCN(c3ccc(OCC4CC4(F)F)cn3)C2)cc1` (some centres unmarked) [Example 3.3], the pIC50 was 6.82.

On to `CC(=O)N[C@@H](C)c1ccc(O[C@@H]2CCN(c3ccnc(NCC(F)F)c3F)C2)cc1` [Example 1.116], for which the pIC50 is 6.75.

Take `COCC(=O)Nc1nc(C)c(C(=O)N[C@@H](C)c2ccc(OC3CCN(c4ccnc(OCC(F)F)c4)C3)cc2)s1` (some centres unmarked) [Example 2.96]: the pIC50 was 7.26.

`COc1c(N2CC[C@@H](Oc3ccc([C@H](C)NC(C)=O)cc3)C2)ccnc1N1CCC(F)(F)C1` [Example 1.146] showed a pIC50 of 6.96.

`CC(=O)N[C@@H](C)c1ccc(O[C@@H]2CCN(c3cccc(N4CCOCC4)n3)C2)cc1` [Example 10.13] had a pIC50 of 6.30.

Turning to `COCCNc1nccc(N2CC[C@@H](Oc3ccc([C@H](C)NC(C)=O)cc3)C2)c1F` [Example 1.119], the pIC50 is 5.88.

In turn, `C[C@H](NC(=O)N(C)C)c1ccc(OC2CCN(c3cccc(C(F)(F)F)n3)C2)cc1` (some centres unmarked) [Example 5.2] showed a pIC50 of 7.05.

For the compound `CC(=O)N[C@@H](C)c1ccc(O[C@@H]2CCN(c3ccnc(OCC4CC4)c3Cl)C2)cc1` [Example 9.82], the negative logarithm of the IC50 (pIC50) is 7.46.

Compound `CCCNc1nccc(N2CCC(Oc3ccc([C@H](C)NC(=O)NCC)cc3)C2)c1F` (some centres unmarked) [Example 5.7] had a pIC50 of 6.93.

`CC(=O)N[C@@H](C)c1ccc(O[C@@H]2CCN(c3ccc(OC[C@H]4CC4(F)F)cn3)C2)cc1` [Example 1.118] had a pIC50 of 7.41.

The compound `CCOc1ccc(N2CCC(Oc3ccc([C@H](C)NC(C)=O)cc3)C2)nc1` (some centres unmarked) [Example 1.6] gave a pIC50 of 6.51.

`CC(O)C(=O)N[C@@H](C)c1ccc(OC2CCN(c3cccc(C(F)(F)F)n3)C2)cc1` (stereo partly drawn) [Example 6.1, 2-Hydroxy-N—((S)-1-(4-((R)-1-(6-(trifluoromethyl)pyridin-2-yl)pyrrolidin-3-yloxy)phenyl)ethyl)propanamide] had a pIC50 of 6.37.

Take `CCC(CC)Oc1cc(N2CC[C@@H](Oc3ccc([C@H](C)NC(C)=O)cc3)C2)ccn1` [Example 9.20]: the negative logarithm of the IC50 (pIC50) is 7.15.

As for `CC(=O)N[C@@H](C)c1ccc(OC2CCN(c3cnc(OCC4CC4(F)F)cc3C)C2)cc1` (some centres unmarked) [Example 1.40], the pIC50 was 6.11.

In turn, `COC(=O)N[C@@H](C)c1ccc(OC2CCN(c3ccnc(OCC4CC4(F)F)c3F)C2)cc1` (some centres unmarked) [Example 4.6] showed a pIC50 of 7.17.

Regarding `C[C@H](NC(=O)C(F)F)c1ccc(OC2CCN(c3ccnc(OCC4CC4)c3)C2)cc1` (some centres unmarked) [Example 2.81], the pIC50 was 7.46.

Turning to `CC(=O)N[C@@H](C)c1ccc(OC2CCN(c3ccc(OCC(C)(F)F)cn3)C2)cc1` (some centres unmarked) [Example 1.91], the pIC50 is 6.18.

In turn, `CC(=O)N[C@@H](C)c1ccc(O[C@@H]2CCN(c3cccc(N4CCCOCC4)n3)C2)cc1` [Example 10.40] showed a pIC50 of 6.28.

`CC(=O)N[C@@H](C)c1ccc(O[C@@H]2CCN(c3ccnc(N4CCC4)c3C)C2)cc1` [Example 1.126] had a pIC50 of 6.22.

The compound `CC(C)Oc1cc(N2CCC(Oc3ccc([C@H](C)NC(=O)c4ccns4)cc3)C2)ccn1` (some centres unmarked) [Example 2.6] gave a pIC50 of 6.84.

Regarding `CCCOc1nccc(N2CC[C@@H](Oc3ccc([C@H](C)NC(C)=O)cc3)C2)c1F` [Example 9.53], the pIC50 is 7.40.

In turn, `C[C@H](NC(=O)CO)c1ccc(OC2CCN(c3ccnc(OCC(F)F)c3)C2)cc1` (some centres unmarked) [Example 2.115] had a pIC50 of 6.06.

In turn, `CC(=O)N[C@@H](C)c1ccc(O[C@@H]2CCN(c3cccc(N4CCOCC4C)n3)C2)cc1` (some centres unmarked) [Example 10.49] showed a pIC50 of 6.11.

In turn, `CC(=O)N[C@@H](C)c1ccc(O[C@@H]2CCN(c3ccnc(OCC(C)(C)O)c3)C2)cc1` [Example 9.32] gave a pIC50 of 6.52.

Compound `C[C@H](NC(=O)N1CCOCC1)c1ccc(OC2CCN(c3ccnc(OCC4CC4)c3)C2)cc1` (some centres unmarked) [Example 3.12] showed a negative-log IC50 (pIC50) of 6.84.

The compound `CCOc1cccc(N2CCC(Oc3ccc([C@H](C)NC(C)=O)cc3)C2)n1` (some centres unmarked) [Example 1.62] showed a pIC50 of 6.10.

The compound `CC(C)Oc1cc(N2CCC(Oc3ccc([C@H](C)NC(=O)C4(C#N)CC4)cc3)C2)ccn1` (some centres unmarked) [Example 2.27] gave a pIC50 of 6.24.

The compound `CCCNc1nccc(N2CCC(Oc3ccc([C@H](C)NC(=O)N4CCOCC4)cc3)C2)c1F` (some centres unmarked) [Example 5.8] showed a negative-log IC50 (pIC50) of 6.85.

Take `Cc1cc(C(=O)N[C@@H](C)c2ccc(OC3CCN(c4cccc(C(F)(F)F)n4)C3)cc2)no1` (some centres unmarked) [Example 2.61]: the pIC50 was 7.46.

Consider `CCCOc1cnc(N2CCC(Oc3ccc([C@H](C)NC(C)=O)cc3)C2)c(C)c1` (some centres unmarked) [Example 1.39], for which the pIC50 was 6.42.

Turning to `CC(=O)N[C@@H](C)c1ccc(O[C@@H]2CCN(c3ccnc(N(C)CC(F)F)c3F)C2)cc1` [Example 1.108], the pIC50 is 7.38.

As for `CC(=O)N[C@@H](C)c1ccc(O[C@@H]2CCN(c3ccnc(C(F)(F)F)c3)C2)cc1` [Example 8.4], the negative-log IC50 (pIC50) is 6.36.

`CCOc1cnc(N2CCC(Oc3ccc([C@H](C)NC(C)=O)cc3)C2)c(C)c1` (some centres unmarked) [Example 1.52] gave a pIC50 of 6.32.

`C[C@H](NC(=O)N(C)C)c1ccc(OC2CCN(c3ccnc(OCC(F)F)c3)C2)cc1` (some centres unmarked) [Example 3.17] had a pIC50 of 6.86.

In turn, `CNC(=O)N[C@@H](C)c1ccc(OC2CCN(c3ccnc(OCC(F)F)c3)C2)cc1` (some centres unmarked) [Example 3.14] gave a pIC50 of 6.62.

`CC(=O)N[C@@H](C)c1ccc(O[C@@H]2CCN(c3ccnc(OCC4CC(F)(F)C4)c3)C2)cc1` [Example 9.61] had a pIC50 of 7.19.

`CC(=O)N[C@@H](C)c1ccc(OC2CCN(c3cccc(C(C)C)n3)C2)cc1` (some centres unmarked) [Example 1.63] had a pIC50 of 7.26.

With `CNC(=O)N[C@@H](C)c1ccc(OC2CCN(c3ccnc(OCC4CC4)c3)C2)cc1` (some centres unmarked) [Example 3.5], the pIC50 was 7.30.

On to `Cc1cncc(C(=O)N[C@@H](C)c2ccc(OC3CCN(c4cccc(C(F)(F)F)n4)C3)cc2)c1` (some centres unmarked) [Example 2.50], for which the pIC50 is 6.05.

The compound `CC(=O)N[C@@H](C)c1ccc(OC2CCN(c3cc(OCC(C)C)ncc3F)C2)cc1` (some centres unmarked) [Example 1.75] had a pIC50 of 7.52.

`CC(C)Oc1cc(N2CCC(Oc3ccc([C@H](C)NC(=O)C4CCC4)cc3)C2)ccn1` (some centres unmarked) [Example 2.25]: the pIC50 was 6.25.

`C[C@H](NC(=O)C(C)(F)F)c1ccc(OC2CCN(c3ccc(OCC4CC4(F)F)cn3)C2)cc1` (some centres unmarked) [Example 2.35] showed a pIC50 of 6.56.

In turn, `CC(=O)N[C@@H](C)c1ccc(O[C@@H]2CCN(c3ccnc(OCCc4ccccc4)c3)C2)cc1` [Example 9.12] had a pIC50 of 6.27.

In the case of `CCCN(C)c1nccc(N2CC[C@@H](Oc3ccc([C@H](C)NC(C)=O)cc3)C2)c1F` [Example 1.103], the pIC50 was 7.15.

As for `CC(C)Oc1cc(N2CCC(Oc3ccc([C@H](C)NC(=O)c4ccncc4)cc3)C2)ccn1` (some centres unmarked) [Example 2.9], the pIC50 is 6.06.

As for `CC(=O)N[C@@H](C)c1ccc(O[C@@H]2CCN(c3cccc(N(C)C(C)C)n3)C2)cc1` [Example 10.31], the pIC50 was 6.50.

On to `CC(=O)N[C@@H](C)c1ccc(O[C@@H]2CCN(c3ccnc(N4CC(F)(F)C4)c3F)C2)cc1` [Example 1.105], for which the pIC50 was 7.23.

Consider `CCC(=O)Nc1nc(C)c(C(=O)N[C@@H](C)c2ccc(O[C@@H]3CCN(c4ccc(OC[C@@H]5CC5(F)F)cn4)C3)cc2)s1` [Example 1.145], for which the pIC50 is 6.00.

With `CC(=O)N[C@@H](C)c1ccc(O[C@@H]2CCN(c3ccnc(OCC4CC4)c3C)C2)cc1` [Example 9.57], the pIC50 was 7.26.

`CC(=O)N[C@@H](C)c1ccc(OC2CCN(c3cc(OCC4CC4(F)F)ncc3C)C2)cc1` (some centres unmarked) [Example 1.89]: the pIC50 is 6.56.

The compound `Cc1[nH]ncc1C(=O)N[C@@H](C)c1ccc(OC2CCN(c3ccc(OCC4CC4(F)F)cn3)C2)cc1` (some centres unmarked) [Example 2.118] had a pIC50 of 6.77.

For the compound `CCC(C)Oc1cc(N2CC[C@@H](Oc3ccc([C@H](C)NC(C)=O)cc3)C2)ccn1` (some centres unmarked) [Example 9.4], the negative logarithm of the IC50 (pIC50) is 7.12.

The compound `COC(C)(C)COc1nccc(N2CC[C@@H](Oc3ccc([C@H](C)NC(C)=O)cc3)C2)c1Cl` [Example 9.79] had a pIC50 of 6.88.

In general, pIC50 refers to the IC50 on a negative log10 scale, so that one unit is a factor of ten. Read a low pIC50 as a high IC50.
